# According to patent US12649751B2 (Arcus Biosciences, Inc., priority 2022, dated 2026):
# pIC50: −log10 of the molar value. Read-outs that look alike come from different tables or passages of the source.
# Tests used:
# [1] = target: HPK1 (Homo sapiens, UniProt Q92918); experiment: HPK1 Biochemical Assay (ADP-Glo luminescence; low ATP 10 μM or high ATP 200 μM)
# [2] = system: p-SLP-76 (Ser376) in Jurkat cells; experiment: pSLP76 Cellular Assay (AlphaLISA SureFire Ultra p-SLP-76 (Ser376), anti-CD3 activated Jurkat cells); assay type: cell-based; conditions: Homo sapiens, read-out: Cellular Potency
# Method in brief: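 Jurkat cells, serum-starved overnight in Opti-MEM then in HBSS, preincubated 1 h at 37 °C with 22-point 2-fold compound dilutions, then stimulated with anti-CD3 (0.025 mg/ml added solution) for 45 min. Lysate p-SLP-76 (Ser376) measured by AlphaLISA at 570 nm; IC50 from 4-parameter logistic fit.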
# [3] = HPK1 ADP-Glo assay, high ATP (200 μM ATP, 5 nM HPK1), read-out: Biochemical Potency (high ATP)
# [4] = pSLP76 (Ser376) AlphaLISA, anti-CD3 activated Jurkat cells
# [5] = 2 nM HPK1, 10 μM ATP, read-out: Biochemical Potency (low ATP)
# [6] = Jurkat cells, anti-CD3 stimulation, pSLP76
# [7] = HPK1 ADP-Glo assay, low ATP (10 μM ATP, 2 nM HPK1), read-out: Biochemical Potency (low ATP)
# Sequence of HPK1 (Q92918 whole entry, species assumed): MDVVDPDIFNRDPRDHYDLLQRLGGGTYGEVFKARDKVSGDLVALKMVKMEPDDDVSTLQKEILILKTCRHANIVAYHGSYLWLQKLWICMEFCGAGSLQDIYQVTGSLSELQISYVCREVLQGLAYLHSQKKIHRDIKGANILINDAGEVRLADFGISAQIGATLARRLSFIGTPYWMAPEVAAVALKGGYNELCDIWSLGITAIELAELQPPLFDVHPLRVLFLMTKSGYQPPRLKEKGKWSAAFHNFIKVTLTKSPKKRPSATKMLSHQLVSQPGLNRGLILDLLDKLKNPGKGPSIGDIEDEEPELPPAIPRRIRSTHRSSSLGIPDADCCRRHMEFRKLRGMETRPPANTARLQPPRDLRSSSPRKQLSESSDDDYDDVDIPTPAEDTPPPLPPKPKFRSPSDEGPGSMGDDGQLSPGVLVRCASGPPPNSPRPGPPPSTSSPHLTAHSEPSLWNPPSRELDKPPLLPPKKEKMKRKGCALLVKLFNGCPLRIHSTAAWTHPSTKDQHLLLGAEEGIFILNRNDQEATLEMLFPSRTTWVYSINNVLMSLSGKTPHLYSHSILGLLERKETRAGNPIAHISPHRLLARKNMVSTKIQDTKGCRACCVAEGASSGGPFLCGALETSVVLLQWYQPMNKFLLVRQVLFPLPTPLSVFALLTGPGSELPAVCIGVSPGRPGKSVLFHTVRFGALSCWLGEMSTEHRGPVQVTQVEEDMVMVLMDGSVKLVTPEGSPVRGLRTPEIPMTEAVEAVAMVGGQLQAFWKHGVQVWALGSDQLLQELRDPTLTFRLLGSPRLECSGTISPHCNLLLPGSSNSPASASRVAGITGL
SMILES,"pIC50 [1, 3]","pIC50 [2, 4]",also measured
"COc1cccc(F)c1-c1nc2cc(Nc3cccc(N4CC5CCC4CN5C)n3)ncc2s1 (stereo not drawn) [Example 79, N-[2-(2-Fluoro-6-methoxyphenyl)-[1,3]thiazolo[5,4-c]pyridin-6-yl]-6-{5-methyl-2,5-diazabicyclo[2.2.2]octan-2-yl}pyridin-2-amine]",–,–,"pIC50 [1, 5]: > 7.00; pIC50 [2, 6]: 5.30 to 6.00"
"COc1cccc(F)c1-c1nc2cc(Nc3cccc(N4CCN(C)CC4)n3)ncc2s1 [Example 81, N-[2-(2-Fluoro-6-methoxyphenyl)-[1,3]thiazolo[5,4-c]pyridin-6-yl]-6-(4-methylpiperazin-1-yl)pyridin-2-amine]",–,–,"pIC50 [1, 5]: > 7.00; pIC50 [2, 6]: 6.00 to 7.00"
"Cc1cccc(F)c1-c1nc2cc(Nc3ccc(C4CCOC4)c(CN(C)C)n3)ncc2s1 (stereo not drawn) [Example 255, 6-[(Dimethylamino)methyl]-N-[2-(2-fluoro-6-methylphenyl)-[1,3]thiazolo[5,4-c]pyridin-6-yl]-5-(oxolan-3-yl)pyridin-2-amine]",–,–,"pIC50 [1, 5]: > 7.00; pIC50 [2, 6]: 6.00 to 7.00"
"Cn1cc(-c2nc3cc(Nc4ccc(N5CCOCC5)c(CN5CCCC5)n4)ncc3s2)cn1 [Example 24, N-[2-(1-Methyl-1H-pyrazol-4-yl)-[1,3]thiazolo[5,4-c]pyridin-6-yl]-5-(morpholin-4-yl)-6-[(pyrrolidin-1-yl)methyl]pyridin-2-amine]",–,–,"pIC50 [1, 5]: > 7.00; pIC50 [2, 6]: 6.00 to 7.00"
"CC(C)c1ccc(Nc2cc3nc(-c4cnn(C)c4)sc3cn2)nc1CN1CCCC1 [Example 227, N-[2-(1-Methyl-1H-pyrazol-4-yl)-[1,3]thiazolo[5,4-c]pyridin-6-yl]-5-(propan-2-yl)-6-[(pyrrolidin-1-yl)methyl]pyridin-2-amine]",–,–,"pIC50 [1, 5]: > 7.00; pIC50 [2, 6]: 6.00 to 7.00"
"c1cc(-c2nc3cc(Nc4ccc(C5CCOCC5)c(CN5CCCC5)n4)ncc3s2)ccn1 [Example 216, 5-(Oxan-4-yl)-N-[2-(pyridin-4-yl)-[1,3]thiazolo[5,4-c]pyridin-6-yl]-6-[(pyrrolidin-1-yl)methyl]pyridin-2-amine]",–,–,"pIC50 [1, 5]: > 7.00; pIC50 [2, 6]: > 7.00"
"c1cc(Nc2cc3nc(-n4cccn4)sc3cn2)nc(N2C[C@@H]3C[C@H]2CN3)c1 [Example 82, 6-[(1S,4S)-2,5-Diazabicyclo[2.2.1]heptan-2-yl]-N-[2-(1H-pyrazol-1-yl)-[1,3]thiazolo[5,4-c]pyridin-6-yl]pyridin-2-amine]",–,–,"pIC50 [1, 5]: > 7.00; pIC50 [2, 6]: > 7.00"
Cc1cc(Nc2cc3nc(-c4ccnc(N5C[C@H]6COC[C@H]6C5)c4)sc3cn2)nc(N2C[C@@H]3C[C@H]2CN3C)n1 [Example 457],> 7.00,6.00 to 7.00,–
Cc1cc(Nc2cc3nc(-c4ccnc(C5(O)CCCC5)c4)sc3cn2)nc(N2C[C@@H]3C[C@H]2CN3C)n1 [Example 397],> 7.00,> 7.00,–
"COc1cccc(F)c1-c1nc2cc(Nc3ccc(N4CCOCC4)c(CN(C)C)n3)ncc2s1 [Example 26, 6-[(Dimethylamino)methyl]-N-[2-(2-fluoro-6-methoxyphenyl)-[1,3]thiazolo[5,4-c]pyridin-6-yl]-5-(morpholin-4-yl)pyridin-2-amine]",–,–,"pIC50 [1, 5]: > 7.00; pIC50 [2, 6]: 6.00 to 7.00"
"CN1C[C@@H]2C[C@H]1CN2c1cncc(Nc2cc3nc(-c4cccc(NS(C)(=O)=O)c4)sc3cn2)n1 [Example 285, N-{3-[6-({6-[(1S,4S)-5-methyl-2,5-diazabicyclo[2.2.1]heptan-2-yl]pyrazin-2-yl}amino)-[1,3]thiazolo[5,4-c]pyridin-2-yl]phenyl}methanesulfonamide]",–,–,"pIC50 [1, 5]: > 7.00; pIC50 ([1]; 5 nM HPK1, 200 μM ATP, read-out: Biochemical Potency (high ATP)): > 7.00; pIC50 [2, 6]: 6.00 to 7.00"
"Cc1ccc(Nc2cc3nc(-n4nccc4C)sc3cn2)nc1CN[C@H]1CCOC1 [Example 198, 5-Methyl-N-[2-(5-methyl-1H-pyrazol-1-yl)-[1,3]thiazolo[5,4-c]pyridin-6-yl]-6-({[(3S)-oxolan-3-yl]amino}methyl)pyridin-2-amine]",–,–,"pIC50 [1, 5]: > 7.00; pIC50 [2, 6]: < 5.30"
Cc1cc(Nc2cc3nc(-c4cncc(N5CCOC[C@H]5C)c4)sc3cn2)nc(N2C[C@@H]3C[C@H]2CN3CCO)n1 [Example 476],> 7.00,> 7.00,–
Cc1cccnc1-c1nc2cc(Nc3ccc(C4CCOCC4)c(N4C[C@@H]5C[C@H]4CN5C)n3)ncc2s1 [Example 433],–,> 7.00,"pIC50 [1, 7]: > 7.00"
"Cc1ccc(Nc2cc3nc(-c4ccnnc4)sc3cn2)nc1CN1CCCC1 [Example 57, 5-Methyl-N-[2-(pyridazin-4-yl)-[1,3]thiazolo[5,4-c]pyridin-6-yl]-6-[(pyrrolidin-1-yl)methyl]pyridin-2-amine]",–,–,"pIC50 [1, 5]: > 7.00; pIC50 [2, 6]: 5.30 to 6.00"
CN1CCc2ccc(Nc3cc4nc(-c5c(F)cccc5F)sc4cn3)cc2CC1 [Example 328],–,4.60 to 5.30,"pIC50 [1, 7]: 6.00 to 7.00"
Cc1cc(Nc2cc3nc(-c4ccnc(O[C@H]5CCOC5)c4)sc3cn2)nc(N2C[C@@H]3C[C@H]2CN3C)n1 [Example 482],> 7.00,5.30 to 6.00,–
Cc1cc(Nc2cc3nc(-c4cccc(C(=O)N5C[C@H]6C[C@@H]5CO6)c4)sc3cn2)nc(N2C[C@@H]3C[C@H]2CN3CCO)n1 [Example 563],> 7.00,6.00 to 7.00,–

# Now from value to compound, other results behind:
"pIC50 [1, 3]","pIC50 [2, 4]",SMILES,also measured
> 7.00,4.60 to 5.30,Cc1cc(Nc2cc3nc(-c4ccc5c(c4)CN(S(C)(=O)=O)CC5)sc3cn2)nc(N2C[C@@H]3C[C@H]2CN3C)n1 [Example 574],–
> 7.00,6.00 to 7.00,CCN1C[C@@H]2C[C@H]1CN2c1nc(C)cc(Nc2cc3nc(-c4cncc(N5CCC(F)CC5)c4)sc3cn2)n1 [Example 470],–
> 7.00,> 7.00,CCN1C[C@@H]2C[C@H]1CN2c1nc(C)cc(Nc2cc3nc(-c4cccc(C(=O)NC5CCCC5)c4)sc3cn2)n1 [Example 515],–
> 7.00,6.00 to 7.00,Cc1cc(Nc2cc3nc(-c4cccc(-c5ncccc5C(C)C)c4)sc3cn2)nc(N2C[C@@H]3C[C@H]2CN3C)n1 [Example 585],–
> 7.00,5.30 to 6.00,Cc1cc(Nc2cc3nc(-c4cnn5ccccc45)sc3cn2)nc(N2C[C@@H]3C[C@H]2CN3C)n1 [Example 386],–
> 7.00,6.00 to 7.00,Cc1cc(Nc2cc3nc(-c4cccnc4)sc3cn2)nc(N2C[C@@H]3C[C@H]2CN3Cc2ccccc2)n1 [Example 490],–
> 7.00,6.00 to 7.00,CCN1C[C@@H]2C[C@H]1CN2c1nc(C)cc(Nc2cc3nc(-c4cnn(Cc5ccccc5)c4)sc3cn2)n1 [Example 336],–
> 7.00,> 7.00,"CCN1C[C@@H]2C[C@H]1CN2c1nc(C)cc(Nc2cc3nc(-c4nc(N)ccc4C)sc3cn2)n1 [Example 296, N-[2-(6-amino-3-methylpyridin-2-yl)-[1,3]thiazolo[5,4-c]pyridin-6-yl]-2-[(1S,4S)-5-ethyl-2,5-diazabicyclo[2.2.1]heptan-2-yl]-6-methylpyrimidin-4-amine]",–
> 7.00,> 7.00,Cc1cc(Nc2cc3nc(-c4ccnc(N5CCOC[C@H]5C)c4)sc3cn2)nc(N2C[C@@H]3C[C@H]2CN3CCO)n1 [Example 450],–
> 7.00,6.00 to 7.00,"Cc1cccnc1-c1nc2cc(Nc3cc(C(C)(C)O)nc(N4C[C@@H]5C[C@H]4CN5C)n3)ncc2s1 [Example 304, 2-{2-[(1S,4S)-5-methyl-2,5-diazabicyclo[2.2.1]heptan-2-yl]-6-{[2-(3-methylpyridin-2-yl)-[1,3]thiazolo[5,4-c]pyridin-6-yl]amino}pyrimidin-4-yl}propan-2-ol]",–
> 7.00,6.00 to 7.00,Cc1cc(Nc2cc3nc(-c4cccc(C5(O)CCCC5)c4)sc3cn2)nc(N2C[C@@H]3C[C@H]2CN3C)n1 [Example 403],–
> 7.00,> 7.00,Cc1cc(Nc2cc3nc(-c4cc(C(=O)N(C)C)cc(C5CC5)c4)sc3cn2)nc(N2C[C@@H]3C[C@H]2CN3CCO)n1 [Example 552],–
> 7.00,5.30 to 6.00,CCN1C[C@@H]2C[C@H]1CN2c1nc(C)cc(Nc2cc3nc(N[C@H](C)c4ccccc4)sc3cn2)n1 [Example 425],–
> 7.00,6.00 to 7.00,Cc1cc(Nc2cc3nc(-c4cncc(-c5ncc(F)cc5C)c4)sc3cn2)nc(N2C[C@@H]3C[C@H]2CN3C)n1 [Example 584],–
> 7.00,6.00 to 7.00,"CCN1C[C@@H]2C[C@H]1CN2c1nc(C)cc(Nc2cc3nc(-c4cncc(N5CCOC[C@H]5C)c4)sc3cn2)n1 [Example 297, 2-[(1S,4S)-5-ethyl-2,5-diazabicyclo[2.2.1]heptan-2-yl]-6-methyl-N-(2-{5-[(3R)-3-methylmorpholin-4-yl]pyridin-3-yl}-[1,3]thiazolo[5,4-c]pyridin-6-yl)pyrimidin-4-amine]",–
> 7.00,6.00 to 7.00,Cc1cccnc1-c1nc2cc(Nc3cc(C4CC4)nc(N4C[C@@H]5C[C@H]4CN5C)n3)ncc2s1 [Example 436],–
> 7.00,6.00 to 7.00,Cc1cc(Nc2cc3nc(-c4cccc(C5(C(=O)N(C)C)CC5)c4)sc3cn2)nc(N2C[C@@H]3C[C@H]2CN3C)n1 [Example 393],–
> 7.00,6.00 to 7.00,CCN1C[C@@H]2C[C@H]1CN2c1nc(C)cc(Nc2cc3nc(-c4cncc(N[C@H](C)c5ccccc5)c4)sc3cn2)n1 [Example 471],–
> 7.00,6.00 to 7.00,Cc1cc(Nc2cc3nc(-c4cnn(C)c4C#N)sc3cn2)nc(N2C[C@@H]3C[C@H]2CN3C)n1 [Example 366],–
